One may read the GI50 as the concentration that inhibits growth by half.

One test relates to colorectal HCT116. Kind of test: Sulforhodamine B (SRB) assay, colorectal HCT116. Format: cell-based. Conditions: Homo sapiens, HCT-116; Table 1; SRB, 48 h; read-out: GI50 Colorectal HCT116. On the procedure:
(§1) Human cancer cells were purchased from the American Type Culture Collection (Manassas, Va., USA). These cell lines were cultured in RPMI 1640 medium or DMEM supplemented with 10% FBS (v/v) and pencillin (100 U/mL)/streptomycin (100 ug/mL)/amphotericin B (0.25 ug/mL). Cultures were maintained at 37° C. in a humidified atmosphere of 5% CO2/95% air.
(§2) Cells were seeded in 96-well plates in medium with 5% fetal bovine serum. After 24 h, cells were fixed with 10% trichloroacetic acid to represent cell population at the time of drug addition (T0). After additional incubation of DMSO or drugs for 48 h, cells were fixed with 10% trichloroacetic acid and sulforhodamine B at 0.4% (w/v) in 1% acetic acid was added to stain cells. Unbound sulforhodamine B was washed out by 1% acetic acid and sulforhodamine B-bound cells were solubilized with 10 mmol/L Trizma base. The absorbance was read at a wavelength of 515 nm. Using the following absorbance measurements, such as time zero (T0), control growth (C), and cell growth in the presence of the drug (Tx), the percentage growth was calculated at each of the compound concentrations levels. Percentage growth inhibition was calculated as […].

The subject of the next test is prostate PC3. Kind of test: Sulforhodamine B (SRB) assay, prostate PC3. Format: cell-based. Conditions: Homo sapiens, Table 1, 48 h. The procedure: as §1, §2
(In general: The SRB assay estimates cell density from bound dye.)

The next test relates to lung A549. Kind of test: Sulforhodamine B (SRB) assay, lung A549. Conditions: Homo sapiens, A549; Table 1; SRB, 48 h; read-out: GI50 Lung A549. Type of test: cell-based, human. On the procedure: Human cancer cells were purchased from the American Type Culture Collection (Manassas, Va., USA).
Cells were seeded in 96-well plates in medium with 5% fetal bovine serum. […] Unbound sulforhodamine B was washed out by 1% acetic acid and sulforhodamine B-bound cells were solubilized with 10 mmol/L Trizma base. […] Using the following absorbance measurements, such as time zero (T0), control growth (C), and cell growth in the presence of the drug (Tx), the percentage growth was calculated at each of the compound concentrations levels. Percentage growth inhibition was calculated as […].

As for `CC(C)c1cc(C(=O)N(C)c2ccc3c(c2)CCCN3C)c(O)cc1O` [Compound 33c, 2,4-dihydroxy-5-isopropyl-N-methyl-N-(1-methyl-1,2,3,4-tetrahydroquinolin-6-yl)benzamide], the figures for the GI50 with colorectal HCT116 and in the test on prostate PC3 were 6.51 ± 0.09 µM and 8.5 ± 0.45 µM, respectively.

For the molecule `CC(C)c1cc(C(=O)Nc2ccc3[nH]ncc3c2)c(O)cc1O` [Compound 25a, 2,4-dihydroxy-N-(1H-indazol-5-yl)-5-isopropylbenzamide], the GI50 in the test with lung A549 and with prostate PC3 was more than 10 µM each time.

In the case of `CCN(C(=O)c1cc(C(C)C)c(O)cc1O)c1cccc2cccnc12` [Compound 31c, N-ethyl-2,4-dihydroxy-5-isopropyl-N-(quinolin-8-yl)benzamide], the GI50 was found to be 3.7 ± 0.17 µM with lung A549 and 2.4 ± 0.27 µM in the test with prostate PC3.

`CC(C)c1cc(C(=O)N(C)c2cnc3ccccc3c2)c(O)cc1O` [Compound 28b, 2,4-dihydroxy-5-isopropyl-N-methyl-N-(quinolin-3-yl)benzamide]: the GI50 in the test with lung A549 and in the test on prostate PC3 was more than 10 µM throughout.

`CC(C)c1cc(C(=O)N(C)c2ncnc3c2ccn3C)c(O)cc1O` [Compound 27b, 2,4-dihydroxy-5-isopropyl-N-methyl-N-(7-methyl-7H-pyrrolo[2,3-d]pyrimidin-4-yl)benzamide]: the GI50 with colorectal HCT116 was found to be 8.96 ± 0.18 µM; with prostate PC3 it was 8.49 ± 0.49 µM.

Regarding `CC(C)c1cc(C(=O)Nc2ncnc3c2ccn3C)c(O)cc1O` [Compound 27a, 2,4-dihydroxy-5-isopropyl-N-(7-methyl-7H-pyrrolo[2,3-d]pyrimidin-4-yl)benzamide], the concentration for 50% growth inhibition (GI50) in the test with colorectal HCT116 and with prostate PC3 was more than 10 µM in each case.

`CCN(C(=O)c1cc(C(C)C)c(O)cc1O)c1ccc2c(c1)CCCN2C` [Compound 33d, N-ethyl-2,4-dihydroxy-5-isopropyl-N-(1-methyl-1,2,3,4-tetrahydroquinolin-6-yl)benzamide]: the GI50 with colorectal HCT116 was 5.71 ± 0.12 µM; in the test on prostate PC3, 8.18 ± 0.46 µM.

`Cc1cc(NC(=O)c2cc(C(C)C)c(O)cc2O)c2ccccc2n1` [Compound 32a, 2,4-dihydroxy-5-isopropyl-N-(2-methylquinolin-4-yl)benzamide]: the GI50 in the test on lung A549 and in the test with prostate PC3 was more than 10 µM throughout.

`CC(C)c1cc(C(=O)Nc2cccc3cccnc23)c(O)cc1O` [Compound 31a, 2,4-dihydroxy-5-isopropyl-N-(quinolin-8-yl)benzamide]: the GI50 with lung A549 and in the test with prostate PC3 was more than 10 µM throughout.

As to `CCCN(C(=O)c1cc(C(C)C)c(O)cc1O)c1cnc2ccccc2c1` [Compound 28d, 2,4-dihydroxy-5-isopropyl-N-propyl-N-(quinolin-3-yl)benzamide], the GI50 in the test on colorectal HCT116 was 1.21 ± 0.13 µM; in the test with lung A549, 1.16 ± 0.1 µM; in the test on prostate PC3 it was 2.33 ± 0.04 µM.

Regarding `CC(C)c1cc(C(=O)N(C)c2cccc3cccnc23)c(O)cc1O` [Compound 31b, 2,4-dihydroxy-5-isopropyl-N-methyl-N-(quinolin-8-yl)benzamide], the figures for the GI50 in the test on colorectal HCT116, with lung A549 and with prostate PC3 were more than 10 µM, 8.7 ± 0.25 µM and 8.93 ± 0.25 µM, respectively.

For the molecule `CCCN(C(=O)c1cc(C(C)C)c(O)cc1O)c1ncnc2c1ccn2C` [Compound 27d, 2,4-dihydroxy-5-isopropyl-N-(7-methyl-7H-pyrrolo[2,3-d]pyrimidin-4-yl)-N-propylbenzamide], the GI50 in the test with colorectal HCT116 and in the test on prostate PC3 was more than 10 µM each time.

In the case of `CC(C)c1cc(C(=O)Nc2ccc3ncccc3c2)c(O)cc1O` [Compound 30a, 2,4-dihydroxy-5-isopropyl-N-(quinolin-6-yl)benzamide], the GI50 in the test with lung A549 and in the test with prostate PC3 was more than 10 µM throughout.

Turning to `CC(C)c1cc(C(=O)Nc2cccc3ncccc23)c(O)cc1O` [Compound 29a, 2,4-dihydroxy-5-isopropyl-N-(quinolin-5-yl)benzamide], the GI50 with lung A549 and in the test with prostate PC3 was more than 10 µM throughout.

In the case of `CC(C)c1cc(C(=O)N(C)c2cccc3ncccc23)c(O)cc1O` [Compound 29b, 2,4-dihydroxy-5-isopropyl-N-methyl-N-(quinolin-5-yl)benzamide], the GI50 in the test on colorectal HCT116, in the test with lung A549 and with prostate PC3 was more than 10 µM in each case.

Take `CC(C)c1cc(C(=O)N(c2ncnc3c2ccn3C)C(C)C)c(O)cc1O` [Compound 27e, 2,4-dihydroxy-N, 5-diisopropyl-N-(7-methyl-7H-pyrrolo[2,3-d]pyrimidin-4-yl)benzamide]: the 50% growth inhibitory concentration (GI50) is 8.77 ± 0.1 µM in the test on colorectal HCT116 and more than 10 µM in the test with prostate PC3.

Turning to `CCN(C(=O)c1cc(C(C)C)c(O)cc1O)c1cc(C)nc2ccccc12` [Compound 32c, N-ethyl-2,4-dihydroxy-5-isopropyl-N-(2-methylquinolin-4-yl)benzamide], the GI50 was determined as 5.99 ± 0.3 µM with colorectal HCT116, 5.67 ± 0.06 µM in the test with lung A549 and 6.3 ± 0.3 µM in the test on prostate PC3.

As to `CC(C)c1cc(C(=O)Nc2cnc3[nH]ncc3c2)c(O)cc1O` [Compound 26a, 2,4-dihydroxy-5-isopropyl-N-(1H-pyrazolo[3,4-b]pyridin-5-yl)benzamide], the GI50 in the test on colorectal HCT116, with lung A549 and in the test on prostate PC3 was more than 10 µM each time.

`CC(C)c1cc(C(=O)Nc2cnc3c(ccn3C)c2)c(O)cc1O` [Compound 24b, 2,4-dihydroxy-5-isopropyl-N-(1-methyl-1H-pyrrolo[2,3-b]pyridin-5-yl)benzamide]: the GI50 in the test with colorectal HCT116, in the test on lung A549 and in the test on prostate PC3 was more than 10 µM each time.

Regarding `CCN(C(=O)c1cc(C(C)C)c(O)cc1O)c1ccc2c(c1)CCCN2` [Compound 33b, N-ethyl-2,4-dihydroxy-5-isopropyl-N-(1,2,3,4-tetrahydroquinolin-6-yl)benzamide], the GI50 with colorectal HCT116 came out at 5.38 ± 0.1 µM; with prostate PC3 it was 6.01 ± 0.41 µM.

With `CC(C)c1cc(C(=O)N(C)c2ccc3c(c2)CCCN3)c(O)cc1O` [Compound 33a, 2,4-dihydroxy-5-isopropyl-N-methyl-N-(1,2,3,4-tetrahydroquinolin-6-yl)benzamide], the GI50 in the test on colorectal HCT116 was found to be 5.79 ± 0.11 µM; in the test on prostate PC3, 7.66 ± 0.42 µM.

As to `CCN(C(=O)c1cc(C(C)C)c(O)cc1O)c1ncnc2c1ccn2C` [Compound 27c, N-ethyl-2,4-dihydroxy-5-isopropyl-N-(7-methyl-7H-pyrrolo[2,3-d]pyrimidin-4-yl)benzamide], the figures for the GI50 in the test with colorectal HCT116 and in the test on prostate PC3 were 3.49 ± 0.15 µM and 6.68 ± 0.55 µM, respectively.

For `CC(C)c1cc(C(=O)Nc2cnc3ccccc3c2)c(O)cc1O` [Compound 28a, 2,4-dihydroxy-5-isopropyl-N-(quinolin-3-yl)benzamide], the GI50 with lung A549 and in the test on prostate PC3 was more than 10 µM throughout.
